Measured values: EP2949653A1, “ISOXAZOLE DERIVATIVES AS LEUKOTRIENE BIOSYNTHESIS INHIBITORS” (Banoglu, Erden, priority 2014, dated 2015)
Several values for one entry are separate records, joined by “and”; a condition that tells them apart may be missing. Equal entries are not always repeated. Where two headings read alike, the source gives them in different places.

Tests used:
[1] = tested on: 5-LO mediated product formation; test: 5-LO mediated product formation in intact neutrophils stimulated with A23187 (cell-based); set-up: species or system human; details: for IC50: Neutrophil
Protocol: (§1) Cell based and cell-free assays carried out in biological studies, immunofluorescence microscopy analysis and zymosan-induced peritonitis in mice are performed as described hereinabove (Pegola, C. and et al., British J. Pharmacology, 2014, D01:10.1111/bph.12625). In the cell based assays (intact neutrophils or monocytes), 5-LO mediated product formation is started, after pre-incubation with test compounds (or control DMSO) for 15 min. at 37 °C, with addition of Ca-ionophore A23187 (2.5 µM) to the fresh 5 x 10^6 neutrophils or monocytes suspended in 1 ml of PGC buffer (phosphate buffered saline (PBS) solution containing 1 mg ml^-1 glucose and 1mM CaCl2, pH 7.4). After the incubation for 10 min. at 37 °C, the reaction is ended with addition of 1 ml of methanol, and 30 µL 1 N HCl, 200 ng prostaglandin B1 and 500 µL PBS are added to the mixture. In cell-free assays (isolated 5-LO and cell homogenates), human recombinant 5-LO protein or 40,000g supernatant is added to 1 ml of 5-LO reaction mixture (PBS, pH 7.4, 1 mM EDTA, 1 mM ATP), and then incubated with test compounds (or control DMSO) for 10 min. at 4°C, heated to 37 °C and 2 mM CaCl2 as well as AA at certain concentrations are added. The reaction is ended as described for the cell-based assays. Resulting 5-LO mediated products are extracted and analysed by the known method of high pressure liquid chromatography (HPLC) (Pergola, C. Proc Natl. Acad. Sci. U.S.A. 2008, 105, 19881). 5-LO mediated product formation (LTB4 and all trans isomers, and 5 (S)-hydro(pero)xy-6-trans-8, 11, 14-cis-eicosatetraenoic acid, 5-H(p)ETE) is expressed as ng per 10^6 cell. Cysteinyl-LTs have not been analyzed because that the amount of C4, D4 and E4 and LTB4 oxidation products are below the detection limit.
(§2) Compounds were tested in intact human neutrophils stimulated with 2.5 µM A23187 under cell based conditions and on purified 5-LO under cell free conditions. ^aData are given as remaining activity as a percentage of control (100%) at 10 µM or 1 µM inhibitor concentrations (means ± SE, n = 3-6).
Compound 9hj inhibited 5-LO mediated product formation with IC50 of 60 nM in human neutrophils. Neutrophils are stimulated with Ca-ionophore A23187 (2.5 µM), without the addition of exogenous arachidonic acid (AA), after pre-incubation with 9hj or vehicle (0.1 % DMSO). 100% controls correspond to 275.7 ng mL^-1 of 5-LO mediated products (Figure 1).
100% controls correspond to 328.97 ng mL^-1 of 5-LO mediated products.

purified 5-LO = biological target: T1, purified 5-LO (Homo sapiens, UniProt P09917); test: Purified / human recombinant 5-LO activity (cell-free); assay type: biochemical
T1 sequence (P09917 1-674): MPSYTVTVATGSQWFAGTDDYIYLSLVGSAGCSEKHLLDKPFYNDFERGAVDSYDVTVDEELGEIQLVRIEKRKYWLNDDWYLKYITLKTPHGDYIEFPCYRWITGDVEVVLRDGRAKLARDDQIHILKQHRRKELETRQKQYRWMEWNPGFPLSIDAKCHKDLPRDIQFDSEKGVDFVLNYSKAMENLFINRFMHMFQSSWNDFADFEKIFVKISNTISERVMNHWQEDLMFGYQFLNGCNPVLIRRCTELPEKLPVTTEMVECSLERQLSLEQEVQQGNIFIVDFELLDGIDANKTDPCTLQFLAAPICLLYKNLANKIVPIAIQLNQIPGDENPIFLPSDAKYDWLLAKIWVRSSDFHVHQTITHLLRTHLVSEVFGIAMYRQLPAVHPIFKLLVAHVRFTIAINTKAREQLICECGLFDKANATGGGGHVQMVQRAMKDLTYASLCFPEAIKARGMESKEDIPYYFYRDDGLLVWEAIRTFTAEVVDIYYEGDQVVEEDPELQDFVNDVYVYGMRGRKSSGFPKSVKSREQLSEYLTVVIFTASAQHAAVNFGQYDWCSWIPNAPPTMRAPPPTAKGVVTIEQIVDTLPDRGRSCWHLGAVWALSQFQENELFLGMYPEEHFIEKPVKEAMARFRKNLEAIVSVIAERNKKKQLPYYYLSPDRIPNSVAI
Protocol: as §1, §2
9hj was added 15 min before addition of 2 mM Ca^2+ plus 3 µM, 10 µM and 30 µM AA. 100% controls correspond to 200.35 ng mL^-1 for 3 µM AA, 514.36 ng mL^-1 for 10 µM AA and 537.73 ng mL^-1 for 30 µM AA.

[2] = tested on: 5-LO mediated product formation; test: 5-LO mediated product formation in intact monocytes stimulated with A23187; assay type: cell-based; details: Homo sapiens, Monocyte; A23187 (2.5 µM), absence of exogenous AA (Figure 3)
Protocol: as §1, with “In cell-free assays (isolated 5-LO and cell homogenates), human recombinant 5-LO protein or 40,000g supernatant is added to 1 ml of 5-LO reaction mixture (PBS, pH 7.4, 1 mM EDTA, 1 mM ATP), and then incubated with test compounds (or control DMSO) for 10 min. at 4°C, heated to 37 °C and 2 mM CaCl2 as well as AA at certain concentrations are added. The reaction is ended as described for the cell-based assays.” left out, “limit. […]” for “limit.”

[3] = tested on: 5-LO mediated product synthesis; test: 5-LO mediated product synthesis in neutrophils stimulated with LPS plus fMLP; assay type: cell-based; details: Homo sapiens, Neutrophil
translocation of 5-LO = test: 5-LO subcellular localization by immunofluorescence microscopy; assay type: cell-based; details: 0.1 and 1 µM; Ca-ionophore A23187 (2.5 µM; 3 min) (Figure 8)
PMNL = test: Cytotoxicity to PMNL; assay type: cell-based; details: within 1 hour at 10 µM

## O=C(O)c1noc(-c2ccc(OCc3ccc4ccccc4n3)cc2)c1-c1ccc(Cl)cc1 [Compound 9hj, 4-(4-Chlorophenyl)-5-(4-(quinolin-2-ylmethoxy)phenyl)isoxazole-3-carboxylic acid]
[1]; Homo sapiens, A23187 (2.5 µM), without exogenous AA, vehicle 0.1 % DMSO (Figure 1), read-out: IC50 5-LO mediated product formation in human neutrophils
  IC50: 0.06 µM
[1]; intact human neutrophils stimulated with 2.5 µM A23187, mean ± SE, n = 3-4, read-out: Inhibition of purified 5-LO activity IC50 (µM) cell based
  IC50: 0.24 µM
[1]; PMNL, remaining activity at 1 µM inhibitor, human neutrophils, 2.5 µM A23187, means ± SE, n = 3-6, read-out: 5-LO mediated product formation in intact neutrophils (PMNL) (% of control) at 1 µM
  activity at 1 µM: 12.1 ± 5.26%
[1]; PMNL, remaining activity at 10 µM inhibitor, human neutrophils, 2.5 µM A23187, means ± SE, n = 3-6, read-out: 5-LO mediated product formation in intact neutrophils (PMNL) (% of control) at 10 µM
  activity at 10 µM: 2.73 ± 1.41%
Purified 5-LO; human recombinant 5-LO, at 3, 10 and 30 µM substrate AA (Figure 5), read-out: mean IC50 activity of isolated 5-LO
  IC50: 2 µM
Purified 5-LO; purified 5-LO under cell free conditions, mean ± SE, n = 3-4, read-out: Inhibition of purified 5-LO activity IC50 (µM) cell-free
  IC50: 8 µM and 8.01 µM
[2]
  IC50: 5 nM
[3]
  IC50: 10 nM
Translocation of 5-LO
  translocation of 5-LO from soluble subcellular compartment to nuclear membrane: inhibited translocation
PMNL
  cytotoxicity to PMNL: not cytotoxic
